Laboratory results reported in patent publication US11253517B2, “Small molecule regulators of steroid receptor coactivators and methods of use thereof” (BAYLOR COLLEGE OF MEDICINE, priority 2016, dated 2022).

Key:
[1] = system: Panc-1-Luc pancreatic tumor; test: Orthotopic pancreatic cancer mouse model (Panc-1-Luc); format: in vivo, SCID mice
Method: FIG. 3, Panels A-E show the therapeutic efficacy of SI-12 in an orthotopic pancreatic cancer mouse model. […] Data represent mean±SEM. *, P<0.05, **, P<0.01 by student t-test.
SI-12 was tested in pancreatic, lung, brain, and melanoma cancers. A representative example for pancreatic tumor treatment is described below. Panc-1 cells stably expressing firefly luciferase cells (Panc-1-Luc, 0.5×10^6 cells per mouse) were injected into the tail of pancreas of SCID mice (6-7 weeks). The mice were randomized into two groups based on luciferase imaging (n=8 per group). Eight days after tumor inoculation, the two groups were administered SI-12 (10 mg/kg, i.p. injection, once daily) or an equal volume of vehicle control five times per week. Tumor growth and systemic toxicity were monitored based on luciferase imaging and body weight weekly. The mice were sacrificed after eight weeks of treatment. […] At the end of the experiment, tumors were harvested and weighed. The average tumor weight in SI-12 treated mice was ˜30% of the vehicle treated counterparts (FIG. 3D).
To test whether SI-12 causes SRC-3 down-regulation in vivo, the SRC-3 levels in tumor tissues were measured by immunohistochemistry (IHC). Multiple tumor tissues (N>3) collected from both the control group and the SI-12 treated group were processed and immunohistochemically stained with an anti-SRC-3 antibody or an anti-Ki-67 antibody. […] Ki-67, a cell proliferation marker, was also immunochemically analyzed.

MDA-MB-231 tumor cells = test: MDA-MB-231 xenograft model (luciferase imaging); format: in vivo, Nude mice; conditions: 4 mg/kg 5 times per week, five-week period
Method: The quantitated luciferase activity is shown in the graph in FIG. 4.
SI-12 was evaluated in a MDA-MB-231 model where the MDA-MB-231 tumor cells were stably transfected with a luciferase expression vector. Nude mice had 2.5×10^5 tumor cells implanted into cleared mammary fat pads of nude mice. The progression of tumors in control and SI-12 treated animals (4 mg/kg 5 times per week) was followed by luciferase imaging of the mice over a five-week period.

panel of 24 kinases = test: Kinase-Glo Luminescent Kinase Assay, panel of 24 kinases; format: biochemical; conditions: 1000 nM, 50 nM and 5 nM, versus DMSO vehicle control
Method: (§1) SI-12 was also tested for its ability to disrupt kinase activity. The effects of the compound were tested on a panel of 24 kinases using a Kinase-Glo Luminescent Kinase Assay system (Promega; Madison, Wis.). SI-12 was tested, at concentrations of 1000 nM, 50 nM, and 5 nM, for its ability to interfere with recombinant kinases in the assay system. The amount of ATP to ADP conversion in the presence of SI-12 was compared to a DMSO vehicle control. The values shown in Table 3 represent the percentage of kinase activity compared to a DMSO vehicle control.
(§2) In Table 3, “−” represents less than 20% inhibition; “+” represents from 20% to 40% inhibition; “++” represents from 40% to 60% inhibition; and “+++” represents greater than 60% inhibition.

CAMK4 = target: T1, CAMK4 (Homo sapiens, UniProt Q16566); test: Kinase-Glo Luminescent Kinase Assay; format: biochemical
T1 construct: purchased Promega
T1 sequence (Q16566 whole entry): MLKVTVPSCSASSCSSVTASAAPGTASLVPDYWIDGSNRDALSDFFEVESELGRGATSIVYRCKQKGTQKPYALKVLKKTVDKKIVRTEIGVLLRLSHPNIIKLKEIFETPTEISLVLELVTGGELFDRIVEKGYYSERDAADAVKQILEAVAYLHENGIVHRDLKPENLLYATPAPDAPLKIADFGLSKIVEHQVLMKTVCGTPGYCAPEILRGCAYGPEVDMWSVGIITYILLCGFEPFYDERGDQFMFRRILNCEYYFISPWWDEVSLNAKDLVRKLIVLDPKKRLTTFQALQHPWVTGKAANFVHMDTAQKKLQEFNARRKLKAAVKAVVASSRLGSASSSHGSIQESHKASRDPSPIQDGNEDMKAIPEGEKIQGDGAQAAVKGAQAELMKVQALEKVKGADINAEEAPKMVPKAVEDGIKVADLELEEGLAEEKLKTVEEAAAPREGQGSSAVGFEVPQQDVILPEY
Method: as §1, §2

CK1y1 = target: T2, CK1y1 (Homo sapiens, UniProt Q9HCP0); test: Kinase-Glo Luminescent Kinase Assay; format: biochemical
T2 construct: purchased Promega
T2 sequence (Q9HCP0 whole entry): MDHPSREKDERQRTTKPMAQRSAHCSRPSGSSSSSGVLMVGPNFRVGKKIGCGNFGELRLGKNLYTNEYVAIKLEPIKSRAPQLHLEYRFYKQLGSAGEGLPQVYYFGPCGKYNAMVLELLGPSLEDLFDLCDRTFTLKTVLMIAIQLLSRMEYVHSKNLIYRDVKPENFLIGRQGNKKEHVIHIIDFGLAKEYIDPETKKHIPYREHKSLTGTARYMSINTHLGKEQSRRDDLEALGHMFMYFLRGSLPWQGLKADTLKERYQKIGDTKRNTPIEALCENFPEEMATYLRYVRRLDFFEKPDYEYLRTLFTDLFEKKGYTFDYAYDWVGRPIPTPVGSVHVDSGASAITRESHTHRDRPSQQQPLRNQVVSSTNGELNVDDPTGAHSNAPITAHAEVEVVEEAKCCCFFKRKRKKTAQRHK
Method: as §1, §2

ROCK1 = target: T3, ROCK1 (Homo sapiens, UniProt Q13464); test: Kinase-Glo Luminescent Kinase Assay; format: biochemical
T3 construct: purchased Promega
T3 sequence (Q13464 whole entry): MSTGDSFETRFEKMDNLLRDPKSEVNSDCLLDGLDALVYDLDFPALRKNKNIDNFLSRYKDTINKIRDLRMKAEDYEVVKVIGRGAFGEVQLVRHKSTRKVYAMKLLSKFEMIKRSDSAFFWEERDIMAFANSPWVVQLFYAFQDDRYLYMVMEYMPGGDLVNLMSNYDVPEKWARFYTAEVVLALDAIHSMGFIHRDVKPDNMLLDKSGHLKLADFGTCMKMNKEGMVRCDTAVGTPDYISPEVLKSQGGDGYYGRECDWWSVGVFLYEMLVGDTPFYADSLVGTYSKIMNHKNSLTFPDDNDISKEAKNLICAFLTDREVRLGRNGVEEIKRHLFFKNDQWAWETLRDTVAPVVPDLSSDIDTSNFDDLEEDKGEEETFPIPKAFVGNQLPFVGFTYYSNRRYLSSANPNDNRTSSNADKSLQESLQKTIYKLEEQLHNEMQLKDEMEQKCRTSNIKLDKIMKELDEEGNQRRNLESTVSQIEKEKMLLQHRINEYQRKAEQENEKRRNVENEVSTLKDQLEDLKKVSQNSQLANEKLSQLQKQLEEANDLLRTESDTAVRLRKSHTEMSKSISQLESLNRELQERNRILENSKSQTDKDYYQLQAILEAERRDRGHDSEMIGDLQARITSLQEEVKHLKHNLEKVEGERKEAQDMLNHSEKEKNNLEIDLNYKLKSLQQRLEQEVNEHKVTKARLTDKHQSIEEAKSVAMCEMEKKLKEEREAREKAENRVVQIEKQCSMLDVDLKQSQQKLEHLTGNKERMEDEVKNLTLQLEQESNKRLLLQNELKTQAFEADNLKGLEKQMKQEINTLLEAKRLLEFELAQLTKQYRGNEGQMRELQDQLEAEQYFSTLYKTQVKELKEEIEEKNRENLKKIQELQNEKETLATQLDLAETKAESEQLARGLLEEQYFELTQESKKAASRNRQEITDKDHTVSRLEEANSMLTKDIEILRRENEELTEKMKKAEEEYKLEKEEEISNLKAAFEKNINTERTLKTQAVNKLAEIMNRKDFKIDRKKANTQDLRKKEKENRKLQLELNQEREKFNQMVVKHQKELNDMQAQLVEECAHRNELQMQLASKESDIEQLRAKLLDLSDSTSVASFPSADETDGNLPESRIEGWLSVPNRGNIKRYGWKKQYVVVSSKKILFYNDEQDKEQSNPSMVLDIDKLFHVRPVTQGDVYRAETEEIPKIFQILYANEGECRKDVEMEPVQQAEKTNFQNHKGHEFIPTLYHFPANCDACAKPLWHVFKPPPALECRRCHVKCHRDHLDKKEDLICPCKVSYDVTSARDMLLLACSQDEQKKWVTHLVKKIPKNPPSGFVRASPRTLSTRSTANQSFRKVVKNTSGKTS
Method: as §1, §2

TAK1-TAB1 = target: T4, TAK1-TAB1 (Homo sapiens, UniProt O43318); test: Kinase-Glo Luminescent Kinase Assay; format: biochemical
T4 construct: purchased Promega
T4 sequence (O43318 with tags, fused parts or gaps limits assumed): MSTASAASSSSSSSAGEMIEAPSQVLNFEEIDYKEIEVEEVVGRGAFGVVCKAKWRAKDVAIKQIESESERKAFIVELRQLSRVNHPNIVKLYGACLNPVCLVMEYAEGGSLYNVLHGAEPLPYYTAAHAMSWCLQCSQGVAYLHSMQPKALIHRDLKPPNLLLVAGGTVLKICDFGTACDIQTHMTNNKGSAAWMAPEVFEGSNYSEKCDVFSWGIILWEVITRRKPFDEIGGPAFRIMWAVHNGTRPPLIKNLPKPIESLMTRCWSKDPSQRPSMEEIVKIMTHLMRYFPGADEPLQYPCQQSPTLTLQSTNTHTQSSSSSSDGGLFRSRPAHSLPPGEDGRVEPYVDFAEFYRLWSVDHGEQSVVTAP
Method: as §1, §2

[2] = 10 mg/kg i.p. once daily, five times per week, eight weeks

For `CC(=NNc1nc2cc(F)c(F)cc2n1C)c1ccc(F)cn1` [SI-12], the body weight loss [1, 2] was “minimal body weight loss”, the “pancreatic tumor growth (luciferase imaging)” value [1, 2] was “significantly delayed pancreatic tumor growth” and the “average tumor weight relative to vehicle treated counterparts” value ([1]; end of experiment, after eight weeks of treatment, 10 mg/kg i.p.) was ~30%. The “Ki-67 positive cells in tumor tissues (IHC)” value ([1]; versus control group, anti-Ki-67 antibody) was “dramatically fewer Ki-67 positive cells”, the “SRC-3 levels in tumor tissues (IHC)” value ([1]; versus vehicle treated control group, anti-SRC-3 antibody) was “significantly lower than the vehicle treated control group” and the “luciferase expression at primary tumor and lung metastasis (whole body imaging)” value (MDA-MB-231 tumor cells) was “reduced luciferase expression at both the sites of the primary tumor and of MDA-MB-231 metastasis to the lung”. For the same compound, the “tumor growth in MDA-MB-231 xenograft model” value (MDA-MB-231 tumor cells) was “can inhibit tumor growth”, the “effects on kinase activity, panel overall” value (panel of 24 kinases) was “minimal effects on kinase activity” and the CAMK4 kinase inhibition (CAMK4; 5 nM) was “− (less than 20% inhibition)”. For the same compound, the CAMK4 kinase inhibition (CAMK4; 50 nM) was “− (less than 20% inhibition)”, the CAMK4 kinase inhibition (CAMK4; 1000 nM) was “− (less than 20% inhibition)” and the CK1y1 kinase inhibition (CK1y1; 5 nM) was “− (less than 20% inhibition)”. For the same compound, the CK1y1 kinase inhibition (CK1y1; 50 nM) was “− (less than 20% inhibition)”, the CK1y1 kinase inhibition (CK1y1; 1000 nM) was “− (less than 20% inhibition)” and the ROCK1 kinase inhibition (ROCK1; 5 nM) was “+ (from 20% to 40% inhibition)”. For the same compound, the ROCK1 kinase inhibition (ROCK1; 50 nM) was “+ (from 20% to 40% inhibition)”, the ROCK1 kinase inhibition (ROCK1; 1000 nM) was “+ (from 20% to 40% inhibition)” and the TAK1-TAB1 kinase inhibition (TAK1-TAB1; 5 nM) was “− (less than 20% inhibition)”. For the same compound, the TAK1-TAB1 kinase inhibition (TAK1-TAB1; 50 nM) was “− (less than 20% inhibition)” and the TAK1-TAB1 kinase inhibition (TAK1-TAB1; 1000 nM) was “− (less than 20% inhibition)”.
